The nature of series [1]: Discoloration of CBD solutions. It is filed as physicochemical. Conditions: end of day 1. The text has this:
The CBD2 material dissolved like the CBD1 therefore the CBD2 is CBD without the discoloration properties of CBD1.

A short description of series [2]: Solubility of CBD in solvents and excipients. In kind it is physicochemical. As to the method: First, the solubility of cannabidiol (CBD) was assessed. The powder looked granulated under the microscope. […] The conclusions from the solubility studies were that OA and IPA were very good solvents and it was surprising that IPA was so much better than ethanol.
Solubility studies: CBD dissolved at the 10% level in AE and barely 9.5% in IPM. Further exploration was not conducted due to the small amount of drug API available for non-GMP work. CBD is soluble greater than 10% but probably not in excess of 20%, as the time to dissolve additional CBD was taking considerably longer.

For another series, the system named is sensitized guinea-pigs. The conditions noted are these: 1 mg/kg i.v.; cited from earlier work.
Another series has as its system anandamide. Conditions: rat basophilic leukemia cells; cited from earlier work.
A short description of series [3]: Solubility of CBD in the Receptor Fluid. It is filed as physicochemical. The conditions noted are these: not told, aqueous with cosolvent or surfactant or cyclodextrin; PBS with 0.01 wt % NaN3, 4 wt % hydroxypropyl-cyclodextrin, 1 wt % Brij O20.
The target of series [4] is T1, human vanilloid receptor type 1 (VR1) (Homo sapiens, UniProt Q8NER1).
T1 construct: expressed in transfected cells; host or cells: HEK cells transfected with hVR1 (HEK-hVR1)
T1 sequence (Q8NER1 whole entry): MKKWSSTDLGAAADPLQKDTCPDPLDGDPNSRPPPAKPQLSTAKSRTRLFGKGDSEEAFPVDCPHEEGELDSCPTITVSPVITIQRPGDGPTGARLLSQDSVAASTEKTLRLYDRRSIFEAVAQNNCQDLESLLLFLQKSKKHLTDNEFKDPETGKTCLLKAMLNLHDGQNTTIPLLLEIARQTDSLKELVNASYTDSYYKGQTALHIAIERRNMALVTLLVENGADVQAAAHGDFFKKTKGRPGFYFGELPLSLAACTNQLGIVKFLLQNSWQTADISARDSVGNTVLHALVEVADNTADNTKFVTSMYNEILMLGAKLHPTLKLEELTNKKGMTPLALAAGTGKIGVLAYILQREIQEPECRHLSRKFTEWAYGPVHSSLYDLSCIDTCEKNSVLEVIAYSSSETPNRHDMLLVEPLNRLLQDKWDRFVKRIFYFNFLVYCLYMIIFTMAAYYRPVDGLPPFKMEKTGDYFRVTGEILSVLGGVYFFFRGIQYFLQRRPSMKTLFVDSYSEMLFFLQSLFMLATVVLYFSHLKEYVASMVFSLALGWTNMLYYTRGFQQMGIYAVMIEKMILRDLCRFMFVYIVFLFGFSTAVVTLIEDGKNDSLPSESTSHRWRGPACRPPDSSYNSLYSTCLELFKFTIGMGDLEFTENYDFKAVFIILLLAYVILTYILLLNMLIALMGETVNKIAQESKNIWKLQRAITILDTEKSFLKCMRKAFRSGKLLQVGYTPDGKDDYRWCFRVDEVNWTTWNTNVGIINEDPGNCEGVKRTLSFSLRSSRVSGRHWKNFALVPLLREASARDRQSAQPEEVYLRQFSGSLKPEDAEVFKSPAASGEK
The conditions noted are these: HEK-hVR1 transfected cells; cited from earlier work.

The next series has as its system rats. The conditions noted are these: 5 mg/kg, i.v., once daily for 4 weeks; cited from earlier work.
For series [5] the following is noted: in ethanol; cited from earlier work.

`C=C(C)[C@@H]1CCC(C)=C[C@H]1c1c(O)cc(CCCCC)cc1O` [CBD2]: the discoloration of solution entry in series [1] was “None of the CBD2 solutions were coloured at the end of day 1”.
As for `C=C(C)C1CCC(C)=CC1c1c(O)cc(CCCCC)cc1O` (stereo not drawn) [CBD, 2-[3-methyl-6-(1-methylethenyl)-2-cyclohexen-1-yl]-5-pentyl-1,3-benzenediol], the “solubility (weight to weight)” value is reported as 6-7% in series [2] (in ethanol); 3-4% in series [2] (in hexamethyldisiloxane (HDS)); “greater than 14%” in series [2] (in isopropyl alcohol (IPA)); 3-4% in series [2] (in mineral oil); “greater than 8%” in series [2] (in oleyl alcohol (OA)); 6-7% in series [2] (in propylene glycol (PG)). In addition, the solubility in series [2] (in isopropyl myristate (IPM)) was roughly 9.5%; in series [3] it was greater than 0.05 mg/mL. In addition, in the series with sensitized guinea-pigs, the ovalbumin-induced airway obstruction entry is “attenuated ovalbumin-induced airway obstruction”. The inhibition of anandamide entry in the series on anandamide is given as “inhibit anandamide”. The “stimulation of human vanilloid receptor type 1 (VR1)” value in series [4] is recorded as “maximum effect similar in efficacy to that of capsaicin”. Moreover, the “cardiac inflammation produced by doxorubicin” value in the series on rats is recorded as “attenuated cardiac inflammation produced by doxorubicin”. In series [5], the reported solubility is reported as 3.5%.
Take `C=C(C)[C@@H]1CCC(C)=C[C@H]1c1c(O)cc(CCCCC)cc1O` [CBD1]: the discoloration of solution entry in series [1] is “coloured by the end of the day”.
